Laboratory results published in publication PMC10412585 (Nature Communications, 2023).
“Also recorded” adds a separate entry of the source. Where two headings read alike, the source gives them in different places.

Assays:
Type in all cases: cell-based, human
HLA-E = HLA-E surface stabilization assay with RMA-S/HLA-E cells; conditions: peptide 3-300 µM (Fig. 3: 30 µM) in OptiMEM, 16 h, 37 °C, anti-HLA-E 3D12, flow cytometry, n = 4 replicate experiments
Description: To probe top-predicted proteome-derived peptides (Tables 2 and 3) for HLA-E binding, we assessed their ability to stabilize surface-expressed HLA-E on RMA-S/HLA-E cells, a TAP-deficient mouse cell line engineered to express HLA-E and human β2M (Fig. 3 and Supplemental Fig. 8)[47].
Fig. 3 Peptide stabilization of HLA-E surface expression. Assessment of peptide-HLA-E binding via HLA-E surface stabilization assay with RMA-S/HLA-E cells incubated with 30 μM peptide. HLA-E expression is detected with an anti-HLA-E antibody. Measurements from n = 4 replicate experiments are shown, with solid black lines indicating mean values. […] Source data are provided as a Source Data file.
RMA-S/HLA-E cells were incubated with serial dilutions of peptides (3–300 µM, Genscript) in OptiMEM (ThermoFisher) for 16 h at 37 °C. Cells were washed with PBS, stained for HLA-E (Clone 3D12, Biolegend, 1:200 dilution) for 15 min at room temperature and analyzed by flow cytometry (analysis in FlowJo version 10). Peptide UBAC2_275-279 was ordered as a 5mer peptide (WNRLF) given the similarity with other WN peptides and hypothesis of a truncated peptide binding in the HLA-E groove. […] Measurements from replicate experiments are plotted in Fig. 3 and Supplemental Fig. 8.

NKG2A+/NKG2C- NK cells = test: NK cell activation assay with peptide-pulsed K562/HLA-E cells, NKG2A+/NKG2C- NK cells; conditions: K562/HLA-E target cells, 300 µM peptide ([…] µM BFAR263-271), E:T 2:1, 6 h; degranulation (CD107a), IFN-γ, TNF, CCL3; flow cytometry
Description: (§1) We hypothesized that our predicted proteome-derived peptides could affect NK cell activation through interactions with CD94/NKG2A and CD94/NKG2C. To investigate, we performed cell-based activation assays on primary NK cells (Fig. 4A). NK cells were co-incubated with peptide-pulsed HLA-E-expressing K562 cells, as described previously. The parental K562 human myelogenous leukemia cell line is a typical target to measure NK cell cytotoxicity and activation, allowing for assessment of both NKG2A-mediated inhibition and NKG2C-mediated activation. […] NKG2A^-/NKG2C^- NK cells served as internal control as these should be unaffected by peptide-HLA-E complexes (Supplemental Fig. 12).
(§2) Fig. 4 NK cell stimulation assays. Assessment of effects of peptides on NK cell activity through incubation of NK cells, peptides, and (A) K562/HLA-E or (B) RMA-S/HLA-E target cells. […] Replicates for individual peptides are from different donors, with solid black lines indicating mean values. […] Representative gating for NKG2A^+/NKG2C^- and NKG2A^-/NKG2C^+ NK cells is shown in Supplemental Fig. 14. Source data are provided as a Source Data file.
(§3) All analyses of human data were carried out in compliance with the relevant ethical regulations. Healthy blood donors gave informed consent at DRK Blutspendedienst Nord-Ost, Dresden, Germany, and buffy coats were obtained as approved by Charité ethics committee (EA4/059/17). PBMCs were isolated from human CMV-seropositive buffy coats by density centrifugation over Ficoll Paque Plus (GE Healthcare) and screened for the presence of NKG2C^+ NK cell expansions by flow cytometry to have sufficient frequencies of single-positive cells for parallel assessment of activation and inhibition via HLA-E[47]. Total NK cells from donors with NKG2C^+ expansions (>10% NKG2A^-/NKG2C^+ NK cells) were enriched with CD56 microbeads (Miltenyi Biotec) and cryopreserved in FBS with 10% v/v DMSO. After thawing, NK cells were washed with complete medium, stained with antibodies and Fixable Viability Dye eFluor 780 (Thermo Fisher) for 15 min at 4 °C in PBS, sorted as viable CD56^+ CD3^− cells, and rested in complete media overnight. […] Brefeldin A and Monensin (BD Biosciences) were added after a 1 h culture period. After an additional 5 h, the stimulation was stopped by centrifugation at 4 °C. Cells underwent surface staining, followed by fixation and intracellular staining using Inside Stain Kit (Miltenyi Biotec). Samples were analyzed by flow cytometry on an LSR Fortessa (BD Biosciences). Inhibition of NKG2A^+ NK cells and activation of NKG2C^+ NK cells was assessed by gating on the respective single-positive populations (Supplemental Fig. 14). Antibodies are listed in Supplemental Table 1: anti-human CD56 PE/Dazzle 594 (1:200 dilution), CD3 APC-eFluor 780 (1:50 dilution), anti-human CD159a (NKG2A) Biotin REAfinity (1:50 dilution), anti-human CD159c (NKG2C) PE REAfinity (1:100 dilution), anti-human CD107a (LAMP-1) Alexa Fluor 488 (1:400 dilution), anti-human IFN-γ PE-Vio 770 REAfinity (1:50 dilution), anti-human TNF-α Brilliant Violet 605 (1:50 dilution), anti-human CCL3 (MIP-1α) REAfinity (1:25 dilution).

NKG2C+ NK cells = test: NK cell activation assay with peptide-pulsed RMA-S/HLA-E cells; conditions: for average percent CD107a+: NKG2C+ NK cells with RMA-S/HLA-E cells, Fig. 4B, stated in author rebuttal
Description: as §2
In contrast to K562 cell lines which are targets for human NK cells, RMA-S cells (a TAP-deficient mouse cell line)[48] are inert to human NK cells and thus will not activate NK cells absent engagement of an activating receptor on the NK cells. […] We performed additional NK cell activation assays with RMA-S/HLA-E cells (Fig. 4B).
as §3

NKG2A-/NKG2C+ NK cells = test: NK cell activation assay with peptide-pulsed K562/HLA-E cells, NKG2A-/NKG2C+ NK cells; conditions: K562/HLA-E target cells, 300 µM peptide ([…] µM BFAR263-271), E:T 2:1, 6 h; degranulation (CD107a), IFN-γ, TNF, CCL3; flow cytometry
Description: as §1, §2, §3

[1] = RMA-S/HLA-E target cells, 300 µM peptide ([…] µM BFAR263-271), E:T 2:1, 6 h, flow cytometry, n = 3 (n = 2 for some) donors

Substance | stabilization of HLA-E surface expression (HLA-E) | inhibitory effects on NKG2A+ cells (NKG2A+/NKG2C- NK cells) | NKG2C-mediated NK cell activation (NKG2C+ NK cells) | activating effects on NKG2C+ cells (NKG2A-/NKG2C+ NK cells) | NKG2C-mediated NK cell activation (NKG2C+ NK cells; [1]) | average percent CD107a+ (NKG2C+ NK cells)
FLPNRSLLF [SLC52A3_354-362, human peptide from Solute carrier family 52, riboflavin transporter, member 3] | strong binding that is weaker than VMAPRTLFL; also recorded: strong stabilization | more moderate inhibitory effects | activation similar to the weaker positive control ([…]) or between the two positive controls | strong activating effects | – | –
ILTDRSLWL [FBXO41_670-678, human peptide from F-box only protein 41] | strong binding that is weaker than VMAPRTLFL; also recorded: strong stabilization | more moderate inhibitory effects | – | strong activating effects | activation at the level of the strongest positive control binder (VMAPRTLFL) | –
NMPARTVLF [MTREX490-498, human peptide from Exosome RNA helicase MTR4] | strong binding that is weaker than VMAPRTLFL; also recorded: strong stabilization | strong inhibitory effects | – | strong activating effects | detectable activation, though below both positive control examples | –
RMPPRSVLL [INTS1_260-268, human peptide from Integrator complex subunit 1] | HLA-E stabilization matching VMAPRTLFL peptide; also recorded: strong stabilization | strong inhibitory effects | – | strong activating effects | – | –
SVPLKTRFL [UL120_71-79, BE/33/2010, divergent UL120 peptide of CMV strain BE/33/2010] | weaker but detectable stabilization | minimal effects | – | minimal effects | – | –
TAPARTMFL [PISD55-63, human peptide from Phosphatidylserine decarboxylase proenzyme, mitochondrial] | strong binding that is weaker than VMAPRTLFL; also recorded: strong stabilization | minimal inhibitory effects | detectable activation, though below both positive control examples | clear activating effects | – | 7.8%
TGAARSFFF [UL102_292-300, CMV peptide from DNA helicase/primase complex-associated protein] | no detectable binding; also recorded: no stabilizing effects | – | – | – | – | –
TLPERTLYL [ECEL1_269-277, human peptide from Endothelin-converting enzyme-like 1] | HLA-E stabilization matching VMAPRTLFL peptide; also recorded: strong stabilization | strong inhibitory effects | activation similar to the weaker positive control ([…]) or between the two positive controls | strong activating effects | – | –
TLPKRGLFL [AKAP6_388-396, human peptide from A-kinase anchor protein 6] | strong binding that is weaker than VMAPRTLFL; also recorded: strong stabilization | more moderate inhibitory effects | – | strong activating effects | activation at the level of the strongest positive control binder (VMAPRTLFL) | –
VMADKSIFY [OR5D14_88-96, human peptide from Olfactory receptor 5D14] | no detectable binding; also recorded: no stabilizing effects | – | – | – | – | –
VMAPQSLLL [negative control peptide, reference compound] | – | – | Minimal activation | – | – | 1.1%
VMAPRTLIL [canonical signal peptide / CMV UL40-derived HLA-E ligand; positive control, reference compound] | – | – | – | – | weaker positive control | –
VMGDRSVLY [EMC1_725-733, human peptide from ER membrane protein complex subunit 1] | no detectable binding; also recorded: no stabilizing effects | – | – | – | – | –
VMPGRTLCF [TACR3_226-234, human peptide from Neuromedin-K receptor] | HLA-E stabilization matching VMAPRTLFL peptide; also recorded: strong stabilization | strong inhibitory effects | activation similar to the weaker positive control ([…]) or between the two positive controls | strong activating effects | – | –
WNRIL [length variant of WN peptide] | did not stabilize HLA-E surface | – | – | – | – | –
WNRILP [length variant of WN peptide] | did not stabilize HLA-E surface | – | – | – | – | –
WNRILPN [length variant of WN peptide] | did not stabilize HLA-E surface | – | – | – | – | –
WNRILPNA [length variant of WN peptide] | did not stabilize HLA-E surface | – | – | – | – | –
WNRILPNAY [library-derived WN 9mer peptide (P1 Trp, P2 Asn)] | did not stabilize HLA-E surface | – | – | – | – | –
WNRLF [UBAC2_275-279, UBAC2 peptide ordered and tested as a 5mer peptide (WNRLF)] | no detectable binding; also recorded: no stabilizing effects | – | – | – | – | –
